Laboratory results reported in patent publication US7692030B2, “Conjugates of artemisinin-related endoperoxides and hydrazone derivatives for the treatment of cancer” (University of Washington, priority 2006, dated 2010).

Columns and labels:
Format in all cases: cell-based
[1] = system: approximately 60 human tumor cell lines; experiment: NCI DTP human tumor cell line screen, whole panel statistics; settings: for inhibitory activities against cancer cells: DTP human tumor cell line screen, non-small cell lung, colon, breast, ovarian, leukemia, renal, melanoma, prostate, CNS cancer; for mean growth percent: mean over all cell lines tested; for mean growth percent / delta value (growth percent) / range (growth percent): 10 μM, 48 h; for delta value (growth percent) / range (growth percent): over all cell lines tested
Procedure: (§1) Representative compounds of the invention, prepared as described in EXAMPLES 1-6, were submitted to the Developmental Therapeutics Program of the United States National Cancer Institute (NCl) to screen for anti-cancer activity. The anti-cancer activities of the six compounds were tested against approximately 60 human tumor cell lines representing leukemia, melanoma, and cancers of the lung, colon, breast, ovary, kidney, prostate, and brain. The following screening methodology was provided by the NCl. […] For experimental screens, cells were inoculated into 96 well microtiter plates in 100 μL at plating densities ranging from 5,000 to 40,000 cells/well depending on the doubling time of individual cell lines. After cell inoculation, the microtiter plates were incubated at 37° C., 5% carbon dioxide, 95% air and 100% relative humidity for 24 hours prior to addition of the compounds. After 24 hours of incubation, two plates of each cell line were fixed in situ with trichloroacetic acid (TCA) to represent a measurement of the cell population for each cell line at the time of compound addition (Tz). The compounds were solubilized in dimethyl sulfoxide at 400-fold the desired final maximum test concentration and stored frozen prior to use. At the time of drug addition, frozen aliquots of the compounds thawed and diluted with complete medium containing 50 μg/ml gentamicin. Aliquots of 100 μl of these different compound dilutions were added to the appropriate microtiter wells already containing 100 μl of medium, resulting in the required final compound concentration of 10 μM. Following compound addition, the plates were incubated for an additional 48 h at 37° C., 5% carbon dioxide, 95% air, and 100% relative humidity. For adherent cells, the assay was terminated by the addition of cold TCA. Cells were fixed in situ by the gentle addition of 50 μl of cold 50% (w/v) TCA (final concentration, 10% TCA) and incubated for 60 minutes at 4° C. The supernatant was discarded, and the plates were washed five times with tap water and air dried. Sulforhodamine B (SRB) solution (100 μl) at 0.4% (w/v) in 1% acetic acid was added to each well, and plates were incubated for 10 minutes at room temperature. After staining, unbound dye was removed by washing five times with 1% acetic acid and the plates were air dried. Bound stain was subsequently solubilized with 10 mM trizma base, and the absorbance was read on an automated plate reader at a wavelength of 515 nm. For suspension cells, the methodology was the same except that the assay was terminated by fixing settled cells at the bottom of the wells by gently adding 50 μl of 80% TCA (final concentration, 16% TCA). Using the three absorbance measurements [time zero, (Tz), control growth, (C), and test growth in the presence of compound (Ti)], the percentage growth was calculated at each of the compound concentrations levels. Percentage growth inhibition was calculated with the following algorithms: [(Ti−Tz)/(C−Tz)]×100 for concentrations for which Ti>/=Tz [(Ti−Tz)/Tz]×100 for concentrations for which Ti<Tz The results of the NCl in vitro anticancer screening with six compounds against various human tumor cell lines are presented below in Tables 2-7. […] The growth percent mean, delta, and range for each compound are given below.

HS 578T = experiment: NCI DTP human tumor cell line screen (SRB); settings: Breast Cancer, 10 μM, 48 h
Procedure: as §1

HCT-116 = experiment: NCI DTP human tumor cell line screen (SRB); settings: Colon Cancer, 10 μM, 48 h
Procedure: as §1

SN12C = experiment: NCI DTP human tumor cell line screen (SRB); settings: Renal Cancer, 10 μM, 48 h
Procedure: as §1

SK-MEL-2 = experiment: NCI DTP human tumor cell line screen (SRB); settings: Melanoma, 10 μM, 48 h
Procedure: as §1

SF-295 = experiment: NCI DTP human tumor cell line screen (SRB); settings: CNS Cancer, 10 μM, 48 h
Procedure: as §1

MOLT-4 = experiment: NCI DTP human tumor cell line screen (SRB); settings: Leukemia, 10 μM, 48 h
Procedure: as §1

NCI-H23 = experiment: NCI DTP human tumor cell line screen (SRB); settings: Non-Small Cell Lung Cancer, 10 μM, 48 h
Procedure: as §1

U251 = experiment: NCI DTP human tumor cell line screen (SRB); settings: CNS Cancer, 10 μM, 48 h
Procedure: as §1

MCF7 = experiment: NCI DTP human tumor cell line screen (SRB); settings: Breast Cancer, 10 μM, 48 h
Procedure: as §1

CCRF-CEM = experiment: NCI DTP human tumor cell line screen (SRB); settings: Leukemia, 10 μM, 48 h
Procedure: as §1

MDA-MB-231/ATCC = experiment: NCI DTP human tumor cell line screen (SRB); settings: Breast Cancer, 10 μM, 48 h
Procedure: as §1

SK-MEL-5 = experiment: NCI DTP human tumor cell line screen (SRB); settings: Melanoma, 10 μM, 48 h
Procedure: as §1

UO-31 = experiment: NCI DTP human tumor cell line screen (SRB); settings: Renal Cancer, 10 μM, 48 h
Procedure: as §1

SF-539 = experiment: NCI DTP human tumor cell line screen (SRB); settings: CNS Cancer, 10 μM, 48 h
Procedure: as §1

786-0 = experiment: NCI DTP human tumor cell line screen (SRB); settings: Renal Cancer, 10 μM, 48 h
Procedure: as §1

A498 = experiment: NCI DTP human tumor cell line screen (SRB); settings: Renal Cancer, 10 μM, 48 h
Procedure: as §1

ACHN = experiment: NCI DTP human tumor cell line screen (SRB); settings: Renal Cancer, 10 μM, 48 h
Procedure: as §1

UACC-257 = experiment: NCI DTP human tumor cell line screen (SRB); settings: Melanoma, 10 μM, 48 h
Procedure: as §1

SR = experiment: NCI DTP human tumor cell line screen (SRB); settings: Leukemia, 10 μM, 48 h
Procedure: as §1

RPMI-8226 = experiment: NCI DTP human tumor cell line screen (SRB); settings: Leukemia, 10 μM, 48 h
Procedure: as §1

OVCAR-4 = experiment: NCI DTP human tumor cell line screen (SRB); settings: Ovarian Cancer, 10 μM, 48 h
Procedure: as §1

UACC-62 = experiment: NCI DTP human tumor cell line screen (SRB); settings: Melanoma, 10 μM, 48 h
Procedure: as §1

BT-549 = experiment: NCI DTP human tumor cell line screen (SRB); settings: Breast Cancer, 10 μM, 48 h
Procedure: as §1

HOP-62 = experiment: NCI DTP human tumor cell line screen (SRB); settings: Non-Small Cell Lung Cancer, 10 μM, 48 h
Procedure: as §1

K-562 = experiment: NCI DTP human tumor cell line screen (SRB); settings: Leukemia, 10 μM, 48 h
Procedure: as §1

NCI/ADR-RES = experiment: NCI DTP human tumor cell line screen (SRB); settings: Breast Cancer, 10 μM, 48 h
Procedure: as §1

OVCAR-3 = experiment: NCI DTP human tumor cell line screen (SRB); settings: Ovarian Cancer, 10 μM, 48 h
Procedure: as §1

SNB-19 = experiment: NCI DTP human tumor cell line screen (SRB); settings: CNS Cancer, 10 μM, 48 h
Procedure: as §1

OVCAR-5 = experiment: NCI DTP human tumor cell line screen (SRB); settings: Ovarian Cancer, 10 μM, 48 h
Procedure: as §1

HCC-2998 = experiment: NCI DTP human tumor cell line screen (SRB); settings: Colon Cancer, 10 μM, 48 h
Procedure: as §1

| SMILES | mean growth percent [1] [%] | delta value (growth percent) [1] | range (growth percent) [1] | Growth Percent (HS 578T) [%] | Growth Percent (HCT-116) [%] | Growth Percent (SN12C) [%] | Growth Percent (SK-MEL-2) [%] | Growth Percent (SF-295) [%] | Growth Percent (MOLT-4) [%] | Growth Percent (NCI-H23) [%] | Growth Percent (U251) [%] | Growth Percent (MCF7) [%] | Growth Percent (CCRF-CEM) [%] | Growth Percent (MDA-MB-231/ATCC) [%] | Growth Percent (SK-MEL-5) [%] | Growth Percent (UO-31) [%] | Growth Percent (SF-539) [%] | Growth Percent (786-0) [%] | Growth Percent (A498) [%] | Growth Percent (ACHN) [%] | other results |
| --- | --- | --- | --- | --- | --- | --- | --- | --- | --- | --- | --- | --- | --- | --- | --- | --- | --- | --- | --- | --- | --- |
| CC1CCC2C(C)C(OCc3ccc(C(=O)NN=Cc4ccccc4O)o3)OC3OC4(C)CCC1C32OO4 (centres unmarked) [ART-Furan-Sal, N′-(2-hydroxybenzylidene)-5-(dihydroxyartemisinin-methyl)-furan-2-carbohydrazide] | 6.1 | 54.64 | 89.31 | 40.07 | 13.81 | 27.18 | −27.21 | 12.70 | −23.49 | 17.54 | 12.24 | 1.18 | −23.63 | 31.58 | −46.62 | −35.28 | −11.48 | −22.22 | 12.88 | 7.80 | inhibitory activities against cancer cells [1]: inhibitory activities against several types of cancer cells; mean growth percent ([1]; summary text): 6.1%; Growth Percent (UACC-257): 9.72%; Growth Percent (SR): −29.47%; Growth Percent (RPMI-8226): 13.00%; Growth Percent (OVCAR-4): 12.86%; Growth Percent (UACC-62): −5.97%; Growth Percent (BT-549): 22.47%; Growth Percent (HOP-62): 12.94%; Growth Percent (K-562): 8.79%; Growth Percent (NCI/ADR-RES): 11.14%; Growth Percent (OVCAR-3): 30.23%; Growth Percent (SNB-19): 25.11%; Growth Percent (OVCAR-5): 28.70%; Growth Percent (HCC-2998): 5.37% |
| CC1CCC2C(C)C(OCc3ccc(C(=O)NN=Cc4ccccc4)cc3)OC3OC4(C)CCC1C32OO4 (centres unmarked) [ART-Phe-Bz, N′-(benzylidene)-4-(dihydroxyartemisinin-methyl)-phenyl carbohydrazide] | 17.28 | 66.68 | 102.60 | 34.12 | 5.59 | 23.38 | −3.22 | 14.30 | −25.73 | 30.10 | 36.35 | 11.63 | 6.71 | 26.78 | 2.01 | −21.11 | 25.70 | 26.79 | 30.47 | 16.91 | Growth Percent (UACC-257): 25.96%; Growth Percent (SR): −24.04%; Growth Percent (RPMI-8226): 1.50%; Growth Percent (OVCAR-4): 18.29%; Growth Percent (UACC-62): 24.51%; Growth Percent (BT-549): 14.60%; Growth Percent (HOP-62): 52.14%; Growth Percent (K-562): 7.86%; Growth Percent (NCI/ADR-RES): 19.93%; Growth Percent (OVCAR-3): 11.56%; Growth Percent (SNB-19): 51.29%; Growth Percent (OVCAR-5): 28.19%; Growth Percent (HCC-2998): 22.05% |
| Cc1ncc(CO)c(C=NNC(=O)c2ccc(COC3OC4OC5(C)CCC6C(C)CCC(C3C)C46OO5)cc2)c1O (centres unmarked) [ART-Phe-Pyridoxal, N′-(5-hydroxy-3-hydroxymethyl-2-methyl-4-pyridylidene)-4-(dihydroxyartemisinin-methyl)-phenyl carbohydrazide] | 7.85 | 51.68 | 88.81 | −15.69 | 15.30 | 16.82 | 20.14 | 25.08 | −25.71 | 13.86 | 17.87 | 1.55 | 2.34 | 29.96 | −43.83 | 4.39 | −20.49 | −19.54 | −36.78 | 7.45 | inhibitory activities against cancer cells [1]: inhibitory activities against several types of cancer cells; mean growth percent ([1]; summary text): 7.85%; Growth Percent (UACC-257): 1.40%; Growth Percent (SR): −29.75%; Growth Percent (RPMI-8226): 9.56%; Growth Percent (OVCAR-4): 21.42%; Growth Percent (UACC-62): −8.10%; Growth Percent (BT-549): −18.57%; Growth Percent (HOP-62): 20.25%; Growth Percent (K-562): 22.86%; Growth Percent (NCI/ADR-RES): 44.16%; Growth Percent (OVCAR-3): 19.87%; Growth Percent (SNB-19): 4.26%; Growth Percent (OVCAR-5): 44.98%; Growth Percent (HCC-2998): 27.38% |
| CC1CCC2C(C)C(OCc3ccc(C(=O)NN=Cc4ccccc4O)cc3)OC3OC4(C)CCC1C32OO4 (centres unmarked) [ART-Phe-Sal, N′-(2-hydroxybenzylidene)-4-(dihydroxyartemisinin-methyl)-phenyl carbohydrazide] | 10.55 | 67.26 | 112.98 | 29.71 | 13.24 | 25.25 | −20.76 | −2.87 | −30.65 | 31.01 | 17.18 | 12.70 | −19.45 | 47.38 | −56.71 | −17.67 | −18.69 | −12.09 | 0.33 | 10.40 | inhibitory activities against cancer cells [1]: inhibitory activities against several types of cancer cells; Growth Percent (UACC-257): 22.90%; Growth Percent (SR): −44.93%; Growth Percent (RPMI-8226): 22.87%; Growth Percent (OVCAR-4): 17.87%; Growth Percent (UACC-62): −17.63%; Growth Percent (BT-549): 25.29%; Growth Percent (HOP-62): 12.31%; Growth Percent (K-562): 8.87%; Growth Percent (NCI/ADR-RES): 21.55%; Growth Percent (OVCAR-3): 29.79%; Growth Percent (SNB-19): 27.53%; Growth Percent (OVCAR-5): 49.55%; Growth Percent (HCC-2998): 37.90% |
